Experimental data from PubChem BioAssay (NCI).
Several values for one entry are separate records, joined by “and”; a condition that tells them apart may be missing. Identical values can stand only once.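 Values below derive from 48-hour exposures of cells grown in 96-well plates, with endpoints linearly interpolated between the two concentrations bracketing the appropriate inhibition level. GI50 marks 50% less growth. TGI marks complete inhibition of growth.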

Tests used:
Assay in all cases: NCI-60 cell line screen, 48 h
M14 melanoma = tested on: M14 melanoma
OVCAR-8 ovarian = tested on: OVCAR-8 ovarian
KM12 colon = tested on: KM12 colon
A549 NSCLC = tested on: A549 NSCLC
SNB-75 CNS = tested on: SNB-75 CNS
NCI-H23 lung = tested on: NCI-H23 lung
DU-145 prostate = tested on: DU-145 prostate
SF-295 CNS = tested on: SF-295 CNS
TK-10 renal = tested on: TK-10 renal
OVCAR-4 ovarian = tested on: OVCAR-4 ovarian

Structure (SMILES)	TGI (M14 melanoma) [µM]	TGI (OVCAR-8 ovarian) [µM]	TGI (KM12 colon) [µM]	TGI (A549 NSCLC) [µM]	TGI (SNB-75 CNS)	TGI (NCI-H23 lung) [µM]	TGI (DU-145 prostate) [µM]	TGI (SF-295 CNS) [µM]	TGI (TK-10 renal) [µM]	TGI (OVCAR-4 ovarian) [µM]	GI50 (M14 melanoma) [µM]	GI50 (OVCAR-8 ovarian) [µM]	GI50 (KM12 colon) [µM]	GI50 (A549 NSCLC) [µM]	GI50 (SNB-75 CNS) [µM]	GI50 (NCI-H23 lung) [µM]	GI50 (OVCAR-4 ovarian) [µM]	GI50 (DU-145 prostate) [µM]	GI50 (SF-295 CNS) [µM]	GI50 (TK-10 renal) [µM]
NC1CC=C(COC(=O)C(O)(c2ccccc2)C2CC2)CC1 (configuration not stated)	> 100	> 100	> 100	> 100	> 100 µM	> 100	> 100	> 100	> 100	–	–	–	–	–	–	–	–	–	–	–
Cc1ccc(N=C2C(=Nc3ccc(C)cc3)N(c3ccc(C)cc3)C(=S)N2C(=O)c2ccccc2)cc1	> 100	–	> 100	> 100	81.2 µM	> 100	> 100	32.3	> 100	–	–	–	–	–	–	–	–	–	–	–
C=CCC(C(=O)Nc1cccc2[nH]cnc12)C(=O)OCC (configuration not stated)	> 100	> 100	> 100	> 100	> 100 µM	–	> 100	> 100	> 100	> 100	–	–	–	–	–	–	–	–	–	–
O=c1ccc2nc(-c3ccccn3)nn(-c3ccccc3)c-2c1	13.6	> 100	28.9	42.3	23.5 µM	4.84	11.1	27.4	3.12	3.04	3.39	3.1	14.5	18.4	11.4	2.19	1.56	3.77	13.9	1.66
CCOC(=O)c1c(-c2cccc3ccccc23)c(C#N)c(=S)n(C2OC(COC(C)=O)C(OC(C)=O)C(OC(C)=O)C2OC(C)=O)c1C (configuration not stated)	> 100	> 100	> 100	> 100	87.9 µM	> 100	> 100	> 100	> 100	> 100	–	–	–	–	–	–	–	–	–	–
COc1ccc(C[C@H](N)C(=O)N2C[C@@H](CO)C[C@@H](n3ccc(=O)[nH]c3=O)C2)cc1	> 100	> 100	> 100	> 100	–	> 100	–	–	> 100	> 100	–	–	–	–	–	–	–	–	–	–
O=c1[nH]c(=S)c2cc3c(=S)[nH]c(=O)n(CCO)c3nc2n1CCO	> 100	> 100	> 100	> 100	> 100 µM	> 100	–	> 100	> 100	> 100	–	–	–	–	–	–	–	–	–	–
COc1ccc(-c2nn(-c3ccc(NC(=O)Nc4ccc(Cl)c(C(F)(F)F)c4)cc3)cc2-c2ccncc2)cc1Cl	3.13	20.7	4.34	> 100	7.86 µM	8.17	20.6	–	5.27	21.9	1.49	2.02	1.22	1.2	1.36	1.77	1.98	3.07	–	1.41
C[N+](C)(CCNC(=O)c1cccc2cc3ccccc3nc12)Cc1ccc([N+](=O)[O-])s1	> 25	> 25	> 25	> 25	> 25 µM	> 25	> 25	> 25	> 25	–	–	–	–	–	–	–	–	–	–	–
Cc1ccc(-n2cc([Si](C)(C)C)nn2)s1	> 100	> 100	–	> 100	–	> 100	> 100	> 100	> 100	> 100	–	–	–	–	–	–	–	–	–	–
N#CC(C#N)=C1C(=O)NC(N)=C1C#N	> 100	> 100	> 100	> 100	–	> 100	> 100	> 100	> 100	> 100	–	–	–	–	–	–	–	–	–	–
CCOc1ccc2c(c1)c(=O)c1c(NCCN(CC)CC)ccc3nnn2c31	> 54.8	65.8	37.1	> 55.5	–	38.6	54.4	> 56.4	37.9	26.3	–	–	–	–	–	–	–	–	–	–
C=C(c1ccccc1)c1ccccc1-c1cc(-c2ccccc2)cc(-c2ccccc2)n1	> 100	> 100	> 100	> 100	> 100 µM	> 100	> 100	> 100	> 100	–	–	–	–	–	–	–	–	–	–	–
Cc1cn(S(=O)(=O)c2ccccc2)c2c(OCc3ccccc3)cc(NS(C)(=O)=O)cc12	> 100	> 100	> 100	> 100	> 100 µM	> 100	> 100	> 100	> 100	> 100	–	–	–	–	–	–	–	–	–	–
COc1ccc(C2=NN=C3C(c4ccccc4)=Nc4ccccc4N3C2)cc1	83.8	–	> 100	> 100	–	> 100	70.7	–	> 100	45.6	–	–	–	–	–	–	–	–	–	–
O=C(O)C(=O)/C=C(\O)c1ccc(Br)cc1	> 100	> 100	> 100	> 100	> 100 µM	> 100	> 100	> 100	> 100	> 100	–	–	–	–	–	–	–	–	–	–
OC(CC(O)(C(F)(F)F)C(F)(F)F)c1ccc(C(O)CC(O)(C(F)(F)F)C(F)(F)F)cc1 (configuration not stated)	29.9	29.5	–	28.6	31.8 µM	26.7	28.3	32.5	–	29.8	–	–	–	–	–	–	–	–	–	–
CCC[C@@H]1C(=O)N=C(N)N1C(=O)OCc1ccccc1	–	> 100	> 100	–	> 100 µM	> 100	> 100	> 100	> 100	> 100	–	–	–	–	–	–	–	–	–	–
COC(=O)C1=C(C(=O)OC)SC2(S1)C(C(=O)OC)=C(C(=O)OC)Sc1c2ssc1=NC(C)(C)C	3.15	3.77	3.91	8.69	2.92 µM	6.66	2.17	27.7	3.27	3.32	–	–	–	–	–	–	–	–	–	–
CN1CCN(C2=CC(=O)c3c(O)ccc(O)c3C2=O)CC1	1.94	–	3.59	3.5	2.97 µM	2.8	3.13	3.09	4.22	3.46	–	–	–	–	–	–	–	–	–	–
Oc1ccc(Cl)cc1C1=NC(/N=C\c2ccccc2)=NC(c2ccccc2)C1 (configuration not stated)	> 100	> 100	> 100	> 100	64.7 µM	> 100	> 100	> 100	> 100	–	–	–	–	–	–	–	–	–	–	–
CCCCNC(=O)/N=C/c1c(O)c2ccccc2oc1=O	> 100	> 100	–	> 100	–	> 100	–	–	> 100	> 100	–	–	–	–	–	–	–	–	–	–
CCCC(=O)[O-].N.N.N.N.N.[Co+3].[O-][Cl+3]([O-])([O-])[O-]	> 100	> 100	> 100	> 100	> 100 µM	> 100	–	> 100	> 100	> 100	–	–	–	–	–	–	–	–	–	–

Structure (SMILES)	TGI (M14 melanoma) [µM]	TGI (OVCAR-8 ovarian) [µM]	TGI (KM12 colon) [µM]	TGI (A549 NSCLC) [µM]	TGI (SNB-75 CNS)	TGI (NCI-H23 lung) [µM]	TGI (DU-145 prostate) [µM]	TGI (SF-295 CNS) [µM]	TGI (TK-10 renal) [µM]	TGI (OVCAR-4 ovarian) [µM]	GI50 (M14 melanoma) [µM]	GI50 (OVCAR-8 ovarian) [µM]	GI50 (KM12 colon) [µM]	GI50 (A549 NSCLC) [µM]	GI50 (SNB-75 CNS) [µM]	GI50 (NCI-H23 lung) [µM]	GI50 (OVCAR-4 ovarian) [µM]	GI50 (DU-145 prostate) [µM]	GI50 (SF-295 CNS) [µM]	GI50 (TK-10 renal) [µM]
CCOC(=O)[C@@H]1ON2OC(OC3CCCC3(c3ccccc3)c3ccccc3)C(OC(C)=O)[C@H]3OC(=O)[C@@H]1C32 (some centres not stated)	> 100	> 100	> 100	> 100	> 100 µM	> 100	> 100	> 100	> 100	–	–	–	–	–	–	–	–	–	–	–
Cn1c(O)c(C=Nc2ccccc2Cl)c(=O)n(C)c1=O	48.9	> 100	> 100	> 100	> 100 µM	> 100	–	80.5	> 100	98.6	–	–	–	–	–	–	–	–	–	–
COc1cc(Br)c(CC2C3=C(CCN2C(=O)C2CCC2)CC(=O)CC3)cc1O (configuration not stated)	> 100	> 100	73.3	> 100	71.1 µM	51.9	> 100	> 100	> 100	–	–	–	–	–	–	–	–	–	–	–
CNc1ncnc2c1cnn2Cc1cn(COCC(O)CO)nn1 (configuration not stated)	> 100	> 100	> 100	> 100	–	> 100	> 100	> 100	> 100	> 100	–	–	–	–	–	–	–	–	–	–
O=c1c2ccccc2nc(N/N=C/c2ccccc2O)n1-c1ccccc1	> 100	5.43	–	> 100	> 100 µM	> 100	> 100	> 100	> 100	43.2	–	–	–	–	–	–	–	–	–	–
Cc1nc2ccccc2c(/C=C/c2ccc(Cl)cc2)c1C(=O)/C=C/c1ccccc1	–	–	3.04	6.54	–	–	–	–	–	–	–	–	1.56	2.24	–	–	–	–	–	–
C=CC(C)(C)C(=C)C(=O)Nc1ccccc1I	> 100	> 100	> 100	> 100	> 100 µM	> 100	> 100	> 100	–	> 100	–	–	–	–	–	–	–	–	–	–
COC(=O)C(NC(=O)c1ccccc1)C(c1ccc(Cl)cc1)P(=O)(OC)OC (configuration not stated)	> 100	> 100	> 100	> 100	> 100 µM	> 100	–	> 100	> 100	> 100	–	–	–	–	–	–	–	–	–	–
Cc1ccc(CCC(=O)C(=O)O)s1	> 100	> 100	> 100	> 100	> 100 µM	> 100	–	> 100	> 100	> 100	–	–	–	–	–	–	–	–	–	–
CCOC(=O)C(NC(=O)OC(C)(C)C)C(=O)OCC	–	> 100	> 100	> 100	> 100 µM	> 100	> 100	–	> 100	> 100	–	–	–	–	–	–	–	–	–	–
Cc1cc(S(=O)(=O)/N=C(/NN)NNc2cccc(C(F)(F)F)n2)c(S)cc1Cl	39.9	58.3	37.2	44.1	32 µM	–	34.1	–	51.8	36	–	–	–	–	–	–	–	–	–	–
CN(C)/N=N/c1nc[nH]c1C(N)=O	> 1000	> 1000	> 1000	–	82.2 µM and > 763 µM	–	> 1000	> 1000	828	> 1000	92.8	35.9	> 156	> 147	126	–	40.1	51.2	44	46.8
COc1ccc(Sc2ccccc2N)cc1	> 100	> 100	> 100	> 100	62.2 µM	> 100	–	> 100	> 100	> 100	–	–	–	–	–	–	–	–	–	–
CN(Cc1cc(Cl)c(Cl)cc1NC(=O)CN)[C@H]1CCCC[C@@H]1N1CCCC1	33.2	> 100	> 100	> 100	> 100 µM	> 100	–	36.6	> 100	> 100	–	–	–	–	–	–	–	–	–	–
Cc1c(C(=O)O)n2cnnc2c2ccccc12	> 100	> 100	> 100	> 100	–	> 100	> 100	> 100	> 100	> 100	–	–	–	–	–	–	–	–	–	–
COc1ccc(Nc2nc(N)c(C(=O)c3cccs3)s2)cc1	34.6	> 100	15.9	> 47.8	–	> 100	36.3	> 100	24.3	48.1	–	–	–	–	–	–	–	–	–	–
CCOC(=O)N1CCC(=C2c3ccc(Cl)cc3CCc3cccnc32)CC1	29.1	32.5	24.3	> 100	–	35.6	26.9	–	29.3	17.1	–	–	–	–	–	–	–	–	–	–
CC1=NN(c2nc(N)nc(CF)n2)C(C)(C)C1	> 100	> 100	> 100	–	> 100 µM	> 100	> 100	> 100	> 100	> 100	–	–	–	–	–	–	–	–	–	–
O=C(N/N=C/c1cc(Br)cc(Br)c1[O-])c1ccccc1O.O=C(N/N=C/c1cc(Br)cc(Br)c1[O-])c1ccccc1O.[Ni+2]	1.47	1.34	2.13	2.33	4.9 µM	2.65	–	1.11	1.87	0.825	–	–	–	–	–	–	–	–	–	–
O=C(CSc1nc2ccccc2c(=O)n1-c1ccccc1)N=Nc1c(O)[nH]c2ccc(F)cc12	4.57	–	32.6	21.6	–	9.21	4.17	–	–	4.34	–	–	–	–	–	–	–	–	–	–
COC1OC2=CCC3C(=O)NC(=O)C3C2[C@H](OCc2ccccc2)C1OCc1ccccc1 (some centres not stated)	3.19	3.07	19.4	40.1	31.5 µM	4.7	–	32.7	3.12	5.32	–	–	–	–	–	–	–	–	–	–
COc1ccc2nc3cc(Cl)ccc3c(NCCNc3c4ccc(Cl)cc4nc4ccc(OC)cc34)c2c1	3.58	–	–	–	–	–	3.08	–	3.42	–	1.96	–	–	–	–	–	–	1.68	–	1.97
